Consider one substance from patent publication US20120225123A1, “Use of Synergistic Combinations of an Avermectin and an Antineoplastic Compounds for the Treatment of Hematological Malignancies” (UNIVERSITY HEALTH NETWORK, priority 2009, published 2012).

This experiment has as its system STAT1 and target genes IFIT3, OAS1 and TRIM22 in OCI-AML2 cells. In words: Gene expression by Q-RT-PCR, OCI-AML2. It is filed as cell-based, human. The settings on record: after ivermectin treatment, Q-RT-PCR. The procedure: Leukemia cells were treated with buffer control or ivermectin (3 μM) for 30 and 40 hours. After treatment, cells were harvested, total RNA was isolated. Total RNA (10 μg) was used for cRNA amplification using the Invitrogen SuperScript kit (Life Technologies, Inc., Burlington, ON, Canada). Amplification and biotin labeling of antisense cRNA was performed using the Enzo® BioArray™ High Yield™ RNA transcript labeling kit (Enzo Diagnostics, Farmingdale, N.Y., USA), according to the manufacturer's instructions. RNA was then hybridized to Affymetrix HG U133 Plus 2.0 gene expression oligonucleotide arrays (Affymetrix, Santa Clara, Calif., USA). Microarray slides were scanned using the GeneArray 2500 scanner (Agilent Technologies). Microarray data were analyzed using GeneSpring GX v10.0 (Agilent), and lists of genes deregulated>2-fold after 30 and 40 hr ivermectin treatment were derived. Pathways and gene ontology analyses were carried out using Ingenuity Pathways Analysis (www.ingenuity.com); and the Database for Annotation, Visualization and Integrated Discovery (DAVID; http://david.abcc.ncifcrf.gov). […]
Gene expression changes were evaluated in OCI AML2, 0937, HL60, DU145 and PPC-1 cells by real-time Q-RT-PCRas described previously^15, 47. The expression level of STAT1A, STAT1B, TRIM22, OAS1 and IFIT3 before and after incubation of leukemia cells with ivermectin was evaluated.

In the case of ivermectin, the “expression of STAT1 and target genes” value is “upregulation of STAT1 and target genes IFIT3, OAS1 and TRIM22”.
